According to patent publication US12195730B2, “High-throughput screening methods to identify small molecule targets” (A-Alpha Bio, Inc., priority 2020, dated 2025):

Assays:
[1] = molecular target: T1, interaction of IKZF1 with wild-type CRBN (Homo sapiens, UniProt Q96SW2); experiment: AlphaSeq assay, effect of thalidomide and analogs on wild-type CRBN/IKZF1 interaction; assay type: cell-based; details: FIG. 7B
T1 construct: expressed in transfected cells; host or cells: recombinant haploid yeast cells (surface display)
T1 sequence (Q96SW2 whole entry): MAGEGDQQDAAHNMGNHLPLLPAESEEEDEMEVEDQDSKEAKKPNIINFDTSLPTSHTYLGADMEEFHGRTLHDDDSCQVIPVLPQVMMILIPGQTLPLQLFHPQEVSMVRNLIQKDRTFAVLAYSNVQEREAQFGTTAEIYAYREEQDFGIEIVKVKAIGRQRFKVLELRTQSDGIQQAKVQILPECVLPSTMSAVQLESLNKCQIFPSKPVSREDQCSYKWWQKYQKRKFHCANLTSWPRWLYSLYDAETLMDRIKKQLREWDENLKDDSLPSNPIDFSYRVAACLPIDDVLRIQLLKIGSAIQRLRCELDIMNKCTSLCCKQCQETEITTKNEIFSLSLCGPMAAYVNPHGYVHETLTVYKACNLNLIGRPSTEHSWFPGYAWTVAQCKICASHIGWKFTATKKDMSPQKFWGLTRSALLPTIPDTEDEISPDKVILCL
T1 sequence (Q13422 whole entry partner): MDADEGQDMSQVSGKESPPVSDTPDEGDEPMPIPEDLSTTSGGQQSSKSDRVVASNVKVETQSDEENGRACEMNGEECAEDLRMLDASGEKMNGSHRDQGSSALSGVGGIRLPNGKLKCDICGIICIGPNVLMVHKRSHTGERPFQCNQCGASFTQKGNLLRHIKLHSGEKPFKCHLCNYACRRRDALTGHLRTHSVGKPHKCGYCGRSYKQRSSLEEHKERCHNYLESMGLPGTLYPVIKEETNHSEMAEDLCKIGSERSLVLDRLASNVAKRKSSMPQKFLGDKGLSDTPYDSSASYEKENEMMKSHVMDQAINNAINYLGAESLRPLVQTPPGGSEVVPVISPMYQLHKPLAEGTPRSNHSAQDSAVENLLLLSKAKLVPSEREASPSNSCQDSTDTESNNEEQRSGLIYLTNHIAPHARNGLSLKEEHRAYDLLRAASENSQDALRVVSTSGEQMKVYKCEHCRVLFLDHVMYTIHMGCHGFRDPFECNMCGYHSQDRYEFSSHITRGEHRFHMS
Excerpt: (§1) FIG. 7A is a schematic illustrating thalidomide, or its analogs, mediating the interaction between CRBN and IKZF1.

[2] = test system: interaction of IKZF1 with mutant CRBN; experiment: AlphaSeq assay, effect of thalidomide and analogs on mutant CRBN/IKZF1 interaction; assay type: cell-based; details: FIG. 7B
Excerpt: as §1

[3] = molecular target: interaction between FKBP12 and the FRB domain of TOR (Homo sapiens, UniProt P42345+P62942); experiment: AlphaSeq yeast mating assay, effect of small molecule agonists on FKBP12/FRB interaction; details: FIG. 6B; increasing compound concentration correlates with increasing mating efficiency
Chain of interaction between FKBP12 and the FRB domain of TOR (P62942 whole entry, the tested form may be a part): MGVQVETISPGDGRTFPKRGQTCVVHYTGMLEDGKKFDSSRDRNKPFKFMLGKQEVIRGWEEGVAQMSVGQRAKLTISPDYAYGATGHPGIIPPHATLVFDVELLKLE
Chain of interaction between FKBP12 and the FRB domain of TOR (P42345 2012-2144 limits assumed): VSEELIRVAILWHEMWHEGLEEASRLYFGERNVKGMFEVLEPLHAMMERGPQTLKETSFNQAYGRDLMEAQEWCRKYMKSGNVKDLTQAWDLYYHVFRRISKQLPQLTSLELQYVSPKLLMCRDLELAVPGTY

Compound	effect on the interaction of IKZF1 with wild-type CRBN [1]	effect on the interaction of IKZF1 with mutant CRBN [2]	effect on the interaction between FKBP12 and the FRB domain (mating efficiency) [3]
Nc1cccc2c1C(=O)N(C1CCC(=O)NC1=O)C2=O (stereo not drawn) [pomalidomide]	agonistic effect	not mutant CRBN	–
CO[C@H]1C[C@@H]2CC[C@@H](C)[C@@](O)(O2)C(=O)C(=O)N2CCCC[C@H]2C(=O)O[C@H]([C@H](C)C[C@@H]2CC[C@@H](OP(C)(C)=O)[C@H](OC)C2)CC(=O)[C@H](C)/C=C(\C)[C@@H](O)[C@@H](OC)C(=O)[C@H](C)C[C@H](C)/C=C/C=C/C=C/1C [ridaforolimus]	–	–	agonistic effect
CO[C@H]1C[C@@H]2CC[C@@H](C)[C@@](O)(O2)C(=O)C(=O)N2CCCC[C@H]2C(=O)O[C@H]([C@H](C)C[C@@H]2CC[C@@H](OCCO)[C@H](OC)C2)CC(=O)[C@H](C)/C=C(\C)[C@@H](O)[C@@H](OC)C(=O)[C@H](C)C[C@H](C)/C=C/C=C/C=C/1C [everolimus]	–	–	agonistic effect
O=C1CCC(N2C(=O)c3ccccc3C2=O)C(=O)N1 (stereo not drawn) [thalidomide]	agonistic effect	not mutant CRBN	–
